# Data reported in PMC10660311 (ACS Chemical Biology, 2023).
# How the values were obtained:
# DTX3L/PARP9 complex = biological target: T1, DTX3L/PARP9 complex (Homo sapiens, UniProt Q8IXQ6+Q8TDB6); experiment: FP binding of fluorescent AR peptides to DTX3L/PARP9 complex; details: 50 nM peptide, RT 45 min, triplicate
# T1 construct: made in house; host or cells: Sf21 insect cells
# Method: Figure 2 Interaction of DTX3L/PARP9 and ADP-ribosylated AR peptides measured by FP assays. […] The reaction mixture was incubated at RT for 45 min, FP measured in a PHERAstar FSX Microplate Reader (BMG Labtech), and the binding curves were fitted for specific binding with GraphPad Prism v 9.3.1. The error bars represent the standard deviations.
# Recombinant PARP9, DTX3L, and DTX3LΔN (N-terminal deletion mutant) were expressed in Sf21 insect cells and purified as previously described.[14] Complex formation of DTX3L/PARP9 or DTX3LΔN/PARP9 was carried out in an equal-molar ratio by incubating the proteins at >1 mg mL^–1 for each on ice for ∼4 h. Fluorescently labeled AR peptides (50 nM final concentration) 1–5 were mixed with various concentrations of the individual recombinant proteins or the protein complexes in a reaction buffer containing 20 mM Tris–HCl (pH 7.5), 50 mM NaCl, 0.1 mM EDTA, and 2 mM DTT, incubated at RT for 45 min and then measured in a PHERAstar FSX Microplate Reader (BMG Labtech). The assays were performed in triplicate. Competition assays were performed with 50 μM ADP-ribose. After correction for signals due to the fluorescent AR peptide alone, polarization values were plotted and analyzed with Prism (GraphPad) using nonlinear fit for specific binding with Hill slope.
# [1] = biological target: dual ADP-ribosylated AR peptide 1, bis-ADP-ribosylated AR(280-294): CF-RPTPC(ADPr)APLAEC(ADPr)KGSL-OH; experiment: fluorescence polarisation; 50 nM CF-labelled AR peptide; recombinant protein or preassembled complex titrated (2500 nM or 2000 nM highest, 2-fold serial dilution); 20 mM Tris-HCl pH 7.5, 50 mM NaCl, 0.1 mM EDTA, 2 mM DTT; RT, 45 min; triplicate; fit for specific binding with Hill slope
Kd [1] [nM],Substance,binding to DTX3L/PARP9 (in words) (DTX3L/PARP9 complex)
–,"CF-Pro-Leu-Ala-Glu-Cys(5-O-adenosine-diphosphate-α-D-ribosyl)-Lys-Gly-Ser-Leu-OH [Peptide 2, CF-labeled mono-ADPr AR peptide]",near-background level of binding
–,"CF-Arg-Pro-Thr-Pro-Cys(5-O-adenosine-diphosphate-α-D-ribosyl)-Ala-Pro-Leu-Ala-OH [Peptide 3, CF-labeled mono-ADPr AR peptide]",near-background level of binding
> 500,DTX3LΔN/PARP9 complex (from UniProt Q8TDB6 1-740; Q8IXQ6 1-854),–
–,CF-RPTPCAPLAECKGSL-OH [Peptide 6],did not bind significantly
